Assay results from patent publication US6294568A, “5-arylpyrrole derivatives” (priority 1997, dated 2001).
pIC50: −log10 of the molar value.

Key:
[1] = test system: pain threshold of brewer's yeast inflamed hind paw; experiment: Analgesic Action Test (Randall et al.); assay type: in vivo, SD rats; conditions: 3 mg/kg oral, 3 hours
Description: SD rats (6 rats per group) fasted overnight were employed for the test. After the measurement of pain threshold values of the left and right hind paws twice using an analgesimeter, the rats were injected subcutaneously with 0.1 ml of 20% brewer's yeast solution at the plantar area of the right hind paw to elicit inflammation. Two hours after the elicitation of inflammation, the pain threshold values of the left and right hind paws were measured and, immediately after the measurement, the test samples were administered orally to the rats. Three hours after the administration, the pain threshold values of the left and right hind paws were measured. […] The dosage amount of each of the test samples was 3 mg/kg.
Pain threshold value rising rate (%)=((pain threshold value of 3 hours after drug administration-pain threshold value of 2 hours after yeast administration)/(pain threshold value before yeast administration-pain threshold value of 2 hours after yeast administration))×100
Pain threshold value fluctuation rate (%)=(1 -(pain threshold value of 3 hours after drug administration/pain threshold value of 2 hours after […]

CaCo-2 cells [2] = experiment: Cytostatic Action Test on Various Cells (XTT method); assay type: cell-based
Description: The cytostatic measurement of the various cancer cells were conducted according to the method of the U.S. National Cancer Institute (NCI). Adhesive cells such as CaCo-2 and HepG2 were adjusted in each of the specified culture mediums at 0.5×10^5 cells/ml concentration and pipetted into a 96 well-plate (Costar3695) in an amount of 100 μl/well. The cells were cultured under the conditions of at 37° C. in 5% CO2 atmosphere for 24 hours to allow the cell adhesion, and then the numbers of each of the cells were determined by the XTT method to be recorded as the cell number of day 0 (C0days). After that, only the medium solutions were exchanged in the control groups, and culture mediums each containing the test samples adjusted to each of the specified concentrations were exchanged In the test sample dispensing groups, then the cells were cultured under the conditions of at 37° C. in 5% CO2 atmosphere for 72 hours. The numbers of each of the cells were determined by the XTT method to be recorded as the cell number of day 3 (C3days). Further, only the medium solutions were pipetted into the control groups and the test sample administration groups were adjusted to 5×10^5 cells/ml concentrations in each of the specified culture mediums containing the test samples adjusted to each of the specified concentrations, then pipetted into a 96 well-plate (Costar3695) in an amount of 100 μl/well. The cells were cultured under the condition of at 37° C. in 5% CO2 atmosphere for 72 hours, and the number of each of the cells (T3days) were determined in the same manner.
Cell proliferation rate (%) with respect to control groups=[(T3days
-C0days)/(C3days -C0days)]×100 Formula: 5

CaCo-2 cells [3] = experiment: Apoptosis Induction Test in CaCo-2 Cells; assay type: cell-based; conditions: 24 hours, propidium iodide staining, fluorescence microscope
Description: CaCo-2 cells were adjusted in 10% FBS/DMEM/NEAA to 1.0×10^5 cells/ml concentration and then pipetted into a 6 well plate in an amount of 3 ml/well. The cells were cultured under the conditions of at 37° C. in 5% CO2 atmosphere for 24 hours to allow the cell adhesion. Only the medium solution (0.1% ethanol) was exchanged in the control group, and the compound of the invention (Preparation Example 1) group was transferred to culture mediums containing the compound adjusted to each of the specified concentrations, then the cells were cultured under the condition of at 37° C. in 5% CO2 atmosphere for 24 hours. Then the culture medium and the adhesive cells separated of the adhesion by trypsin were collected and centrifuged at 1000 rpm for 5 minutes to remove the supernatant. The cells were washed with PBS(-) and then 20 μl of 90% ethanol/0.5% triton×100/10mM EDTA/10mM Tris-HCl (pH7.4) and 5 μl of propidium iodide (1 μg/ml) were added thereto to stain the nucleuses. A drop of the stained cell solution was placed on a preparation glass to be examined by a fluorescence microscope at B range.

Acute Toxicity Test = assay type: in vivo, SD rats
Description: SD rats (3 rats per group) fasted overnight was employed in the present test. The title compound (Preparation Example 1) suspended in 1% methyl cellulose was administered to the rats. The test was conducted on the dosages of […]. […] It was indicted from the test result that the title compounds ensure the enhanced safety.

Subcute Toxicity Test = assay type: in vivo, SD rats; conditions: 100 mg/kg once daily for 14 days, male and female rats
Description: The Subcute toxicity test was conducted as described in the following. SD rats (six each of male and female rats per group) were employed in the present test. The title compound (Preparation Example 1) was suspended in 0.5% methyl cellulose solution to be administered to the rats by a disposable feeding tube (manufactured by Fuchigami Kikai) once daily for 14 days. The dosage of the test samples was 100 mg/kg.

Cc1cc(-c2ccc(F)cc2)c(-c2ccc(S(C)(=O)=O)cc2)[nH]1 [Preparation Example 1, 4-(4-fluorophenyl)-2-methyl-5-(4-methylsulfonylphenyl)-1H-pyrrole]
Pain Threshold Value Fluctuation Rate ([1]; Left Hind Paw (non-inflammatory paw)): 2.47% | Pain Threshold Value Rising Rate ([1]; Right Hind Paw (inflammatory paw)): 33.3% | cytostatic action (CaCo-2 cells [2]; CaCo-2 cells, colon cancer cells): demonstrated a cytostatic action with respect to CaCo-2 cells | pIC50 (CaCo-2 cells [2]; Homo sapiens, CaCo-2, 72 hours, XTT method, read-out: Cytostatic rate (IC50)): 6.11 | cell apoptosis (CaCo-2 cells [3]): cell apoptosis caused by the compound of the invention was observed | death (Acute Toxicity Test; 500/kg, 1000/kg, 2000/kg, observed for a week): no death was noted in the test | general symptoms after administration (Acute Toxicity Test; rat, in vivo): an analgesic action was noted after the administration, and the rats recovered to the normal state in one hour | weight and general symptoms after one week (Acute Toxicity Test; rat, in vivo): the weight increased favorably and no abnormality was noted in the general symptoms | general symptoms and weight increase (Subcute Toxicity Test): neither of a change in the general symptoms nor an adverse affect on the weight increase was noted
